US8946446B2, “Pyrrolo sulfonamide compounds for modulation of orphan nuclear receptor RAR-related orphan receptor-γ (ROR-γ, NR1F3) activity and for the treatment of chronic inflammatory and autoimmune diseases” (Phenex Pharmaceuticals AG, priority 2011, dated 2015)
Read-outs that look alike come from different tables or passages of the source.

Biological target: T1, RORγ ligand binding domain (LBD) (Homo sapiens, UniProt P51449)
T1 construct: made in house; host or cells: E. coli BL-21 (BL3), vector pDEST15
T1 sequence (P51449 269-508 limits assumed): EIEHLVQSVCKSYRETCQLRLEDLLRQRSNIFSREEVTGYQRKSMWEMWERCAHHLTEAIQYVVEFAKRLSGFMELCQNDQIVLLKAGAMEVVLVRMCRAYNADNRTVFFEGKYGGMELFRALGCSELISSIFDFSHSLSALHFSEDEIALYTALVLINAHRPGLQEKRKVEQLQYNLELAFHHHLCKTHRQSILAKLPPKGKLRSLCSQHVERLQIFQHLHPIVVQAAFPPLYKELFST
Experiment: TR-FRET Activity Assay (ligand sensing, RORγ-LBD / coactivator peptide interaction)
Format: biochemical
Description: This method measures the ability of putative ligands to modulate the interaction between the purified bacterial expressed RORγ ligand binding domain (LBD) and synthetic N-terminally biotinylated peptides which are derived from nuclear receptor coactivator proteins such as but not limited to SRC1 (NcoA1), SRC2 (NcoA2, TIF2), SRC3 (NcoA3), PGC1α, PGC1β, CBP, GRIP1, TRAP220, RIP140.
The ligand-binding domain (LBD) of RORγ was expressed as fusion protein with GST in […] cells using the vector pDEST15. Cells were lysed by lysozyme-treatment and sonication, and the fusion proteins purified over glutathione sepharose (Pharmacia) according to the manufacturers instructions. For screening of compounds for their influence on the RORγ-peptide interaction, the LANCE technology (Perkin Elmer) was applied. This method relies on the binding dependent energy transfer from a donor to an acceptor fluorophor attached to the binding partner of interest. For ease of handling and reduction of background from compound fluorescence LANCE technology makes use of generic fluorophore labels and time resolved detection assays were done in a final volume of 25 μL in a 384 well plate, in a Tris-based buffer system (20 mM Tris-HCl pH6.8; 60 mM KCl, 1 mM DTT; 5 mM MgCl2; 35 ng/μL BSA), containing 20-60 ng/well recombinantly expressed RORγ-LBD fused to GST, 200-600 nM N-terminally biotinylated peptide, 200 ng/well Streptavidin-xIAPC conjugate (Prozyme) and 6-10 ng/well Eu W1024-antiGST (Perkin Elmer). DMSO content of the samples was kept at 1%.
After generation of the Tris-based buffer system, the potentially RORγ modulating ligands were diluted. […] The LANCE signal was detected by a Perkin Elmer EnVision™ Multilabel Counter. The results were visualized by plotting the ratio between the emitted light at 665 nm and 615 nm. […] Ligands that promote the complex formation induce a concentration-dependent increase in time-resolved fluorescent signal.
The normalised TR-FRET assay values, using the following equation: 1000*665 nm measurement value/615 nm measurement value, were transferred to the program GraphPad Prism to generate graphs and dose response curves using the following equation:
Equation: Sigmoidal Dose-Response (Variable Slope) Y=Bottom+(Top-Bottom)/(1+10^((LogEC50−X)*HillSlope)) X is the logarithm of the concentration. Y is the response. Y starts at Bottom and goes to Top with a sigmoidal shape.
This is identical to the “four parameter logistic equation”. The IC50 values are calculated using this equation.

[1] = read-out: RORγ activity in the TR-FRET Activity Assay (IC50 FRET), Group

IC50 [1]	SMILES	IC50
< 500 nM	CC(C)(C)c1cc(-c2cc(S(N)(=O)=O)cn2CC2CCCCC2)cc(C(C)(C)C)c1 [Example 28, 1-(Cyclohexylmethyl)-5-(3,5-di-tert-butylphenyl)-1H-pyrrole-3-sulfonamide]	–
< 500 nM	Cc1c(S(N)(=O)=O)cc(-c2ccc(S(=O)(=O)N3CCCCC3)c(C(C)(C)C)c2)n1CC1CCCCC1 [1/25]	–
500 to 2000 nM	Cc1c(S(N)(=O)=O)cc(-c2cn(S(=O)(=O)c3ccccc3Cl)c3ccccc23)n1CC1CCCCC1 [Example 53, 5-(1-((2-Chlorophenyl)sulfonyl)-1H-indol-3-yl)-1-(cyclohexylmethyl)-2-methyl-1H-pyrrole-3-sulfonamide]	–
< 500 nM	Cc1c(S(N)(=O)=O)cc(-c2ccc(S(=O)(=O)NC(C)(C)C)c(C(F)(F)F)c2)n1CC1CCCCC1 [22/5]	–
< 500 nM	Cc1c(S(N)(=O)=O)cc(-c2cc(C(C)(C)C)cc(C(C)(C)C)c2)n1CC1CCCCCC1 [1/37]	–
500 to 2000 nM	Cc1c(S(N)(=O)=O)cc(-c2cc(OC(C)C)cc(C(C)(C)C)c2)n1CC1CCCCC1 [16/2]	–
> 2000 nM	CC(=O)NCC(C)(C)c1cc(-c2cc(S(N)(=O)=O)c(C)n2CC2CCCCC2)cc(C(C)(C)C)c1 [Example 49, N-(2-(3-(tert-Butyl)-5-(1-(cyclohexylmethyl)-5-methyl-4-sulfamoyl-1H-pyrrol-2-yl)phenyl)-2-methylpropyl)acetamide]	–
500 to 2000 nM	Cc1c(S(N)(=O)=O)cc(-c2ccc(S(=O)(=O)NC(C)(C)CCO)c(C(F)(F)F)c2)n1CC1CCCCC1 [12/31]	–
500 to 2000 nM	CC(C)(C)c1cc(-c2c(Br)c(S(N)(=O)=O)c(Br)n2CC2CCCCC2)cc(C(C)(C)C)c1 [Example 32, 2,4-Dibromo-1-(cyclohexylmethyl)-5-(3,5-di-tert-butylphenyl)-1H-pyrrole-3-sulfonamide]	–
500 to 2000 nM	Cc1c(S(=O)(=O)NCC2COCCN2C)cc(-c2cc(C(C)(C)C)cc(C(C)(C)C)c2)n1CC1CCCCC1 (stereo not shown) [5/11]	–
–	Cc1c(S(N)(=O)=O)cc(-c2cc3c(c(C(C)(C)C)c2)OCC(=O)N3C(C)C)n1CC1CCCCC1 [12/10]	500 to 2000 nM
< 500 nM	CC(C)(C)c1cc(-c2cc(S(N)(=O)=O)c(Cl)n2CC2CCCCC2)cc(C(C)(C)C)c1 [Example 29, 2-Chloro-1-(cyclohexylmethyl)-5-(3,5-di-tert-butylphenyl)-1H-pyrrole-3-sulfonamide]	–
–	Cc1c(S(N)(=O)=O)cc(-c2cc(C(C)(C)C)c(OCCO)c(C(C)(C)C)c2)n1CC1CCCCC1 [16/8]	500 to 2000 nM
> 2000 nM	Cc1c(S(N)(=O)=O)cc(-c2cnc(OCC(C)(C)C)c(C(F)(F)F)c2)n1CC1CCCCC1 [34/4]	–
500 to 2000 nM	Cc1c(S(=O)(=O)NC2CCCC2)cc(-c2cc(C(C)(C)C)cc(C(C)(C)C)c2)n1CC1CCCCC1 [2/4]	–
500 to 2000 nM	Cc1c(S(N)(=O)=O)cc(-c2cc(C(C)(C)C)cc(C(C)(C)C)c2)n1CC1CCCC1 [1/38]	–
> 2000 nM	Cc1c(S(N)(=O)=O)cc(-c2cc(OCCCN3CCOCC3)nc(C(C)(C)C)c2)n1CC1CCCCC1 [17/3]	–
500 to 2000 nM	Cc1c(S(N)(=O)=O)cc(-c2ccc(S(=O)(=O)NC(C)(C)C)c(C(C)(C)C)c2)n1CC1CCCCC1 [22/1]	–
> 2000 nM	Cc1c(S(N)(=O)=O)cc(-c2cc(C(C)(C)C)cc(C(C)(C)C)c2)n1CC1CCOCC1 [1/20]	–
> 2000 nM	Cc1c(S(N)(=O)=O)cc(-c2ccc(N3CCOCC3=O)c(C(C)(C)C)c2)n1CC1CCCCC1 [12/35]	–
> 2000 nM	Cc1c(S(N)(=O)=O)cc(-c2cc3c(c(C(C)(C)C)c2)OCC(=O)N3C)n1CC1CCCCC1 [12/9]	–
> 2000 nM	Cc1c(S(N)(=O)=O)cc(-c2cc(C(F)(F)F)c(=O)n(CC(C)(C)C)c2)n1CC1CCCCC1 [Example 34, 1-(Cyclohexylmethyl)-2-methyl-5-(1-neopentyl-6-oxo-5-(trifluoromethyl)-1,6-dihydropyridin-3-yl)-1H-pyrrole-3-sulfonamide]	–
< 500 nM	Cc1c(S(N)(=O)=O)cc(-c2cc(C(C)(C)C)cc(C(C)(C)C)c2)n1CC1CCCCC1 [Example 1, 1-(Cyclohexylmethyl)-5-(3,5-di-tert-butylphenyl)-2-methyl-1H-pyrrole-3-sulfonamide]	–
500 to 2000 nM	Cc1c(S(N)(=O)=O)cc(-c2ccc(S(=O)(=O)N3CCC(C)CC3)c(C(C)(C)C)c2)n1CC1CCCCC1 [1/26]	–
500 to 2000 nM	Cc1c(S(N)(=O)=O)cc(-c2cc(C(=O)NCC(C)C)cc(C(C)(C)C)c2)n1CC1CCCCC1 [Example 13, 3-(tert-Butyl)-5-(1-(cyclohexylmethyl)-5-methyl-4-sulfamoyl-1H-pyrrol-2-yl)-N-isobutylbenzamide]	–
< 500 nM	CCC(C)(C)NS(=O)(=O)c1ccc(-c2cc(S(N)(=O)=O)c(C)n2CC2CCCCC2)cc1C(F)(F)F [22/6]	–
> 2000 nM	CNC(=O)COc1c(C(C)(C)C)cc(-c2cc(S(N)(=O)=O)c(C)n2CC2CCCCC2)cc1C(C)(C)C [16/10]	–
–	Cc1c(S(N)(=O)=O)cc(-c2cc(C(C)(C)C)cc(C(C)(C)C)c2)n1CC1CCCCO1 (stereo not shown) [1/21]	500 to 2000 nM
